Our source for the Phytotoxicity and melting point values is patent US20040063729A1, “Triazolopyrimidines” (priority 2000, published 2004).

SMILES strings stand for the structures.

As usually defined, the melting point is the temperature of the solid-liquid transition.

One series relates to Kidney beans (variety:Serina). Nature of the series: Phytotoxicity tested at the same time in the foliar spray test. It counts as in vivo. To be noted: active compound concentration of 500 ppm; foliar spray on kidney beans. Here is the method:
Kidney beans (variety:Serina) were cultivated in plastic pots each having a diameter of 6 cm. The previously prepared solution of the prescribed concentration of active compound was sprayed over the plants in the 1 leaf stage at a rate of 20 ml per pot. One day after spraying, a gel obtained by mixing a suspension of spores of artificially cultured Botrytis cinera and PDA medium was added dropwise to the removed first leaf for infection in a plastic box having a size of 20 while maintaining humidity. 5 days after the inoculation, the infection rate per pot was classified and evaluated according to the following standard, and the control value (%) was calculated. Phytotoxicity was tested at the same time. This test is an average of the results of 3 replications. The evaluation of the infection rate and the calculation method of the control value were conducted as follows: […]
For `Fc1ccc(Cc2c(Cl)nc3ncnn3c2Cl)c(F)c1F` [I-6], the Phytotoxicity result is listed as “No phytotoxicity”.
With `Fc1ccc(F)c(Cc2c(Cl)nc3ncnn3c2Cl)c1F` [I-11], the Phytotoxicity entry is “No phytotoxicity”.
On the same count and under the same terms, in the case of `Fc1cc(F)c(Cc2c(Cl)nc3ncnn3c2Cl)cc1F` [I-18] it was “No phytotoxicity”; in that of `Fc1cc(F)c(Cc2c(Cl)nc3ncnn3c2Cl)c(F)c1` [I-20], “No phytotoxicity”; in that of `FC(F)(F)c1cccc(Cc2c(Cl)nc3ncnn3c2Cl)c1` [I-73], “No phytotoxicity”.
On the same count and under the same terms, in the case of `Cc1cccc(Cc2c(Cl)nc3ncnn3c2Cl)c1` [I-75] it was “No phytotoxicity”.
Still for that read-out and setting: in the case of `Clc1cccc(Cc2c(Cl)nc3ncnn3c2Cl)c1` [I-76] it was “No phytotoxicity”; in that of `Cc1ccc(Cc2c(Cl)nc3ncnn3c2Cl)cc1` [I-94], “No phytotoxicity”.
As for `Clc1ccc(Cc2c(Cl)nc3ncnn3c2Cl)cc1` [I-95, 5,7-dichloro-6-(4-chlorobenzyl)[1,2,4]triazolo[1,5-a]pyrimidine], the Phytotoxicity result is on record as “No phytotoxicity”.
In the case of `FC(F)(F)Oc1ccc(Cc2c(Cl)nc3ncnn3c2Cl)cc1` [I-104], the Phytotoxicity entry is “No phytotoxicity”.
Same read-out and setting: in the case of `Clc1nc2ncnn2c(Cl)c1Cc1ccccc1` [I-110] it was “No phytotoxicity”.
The same measure, in the same setting: in the case of `CC(c1ccccc1)c1c(Cl)nc2ncnn2c1Cl` (stereo not shown) [I-112] it was “No phytotoxicity”; in that of `Clc1cccc(Cc2cnc3ncnn3c2Cl)c1Cl` [I-142], “No phytotoxicity”; in that of `Clc1ccc(Cc2cnc3ncnn3c2Cl)cc1Cl` [I-146], “No phytotoxicity”.

System in the next series: not given
Assay: not given
Conditions: not given
As to `Clc1ccc(Cc2c(Cl)nc3ncnn3c2Cl)cc1` [I-95, 5,7-dichloro-6-(4-chlorobenzyl)[1,2,4]triazolo[1,5-a]pyrimidine], the melting point lay within 165 to 167 °C.
Same read-out and setting: in the case of `Clc1c(Cc2ccccc2)cnc2ncnn12` [I-111, 6-benzyl-7-chloro[1,2,4]triazolo[1,5-a]pyrimidine] it was 123 to 127 °C.
